What all share (type): cell-based
One test concerns the target T1, SMARCA4 (Homo sapiens, UniProt P51532).
T1 construct: endogenous in cells; host or cells: MV-4-11 (CRL-9591)
The test can be described thus: SMARCA4 degradation in MV-4-11 cells by Western blot. The conditions noted are these: MV4-11, at 100 nM, 16 hours, vs DMSO, read-out: Percent degradation SMARCA4. The procedure: (§1) Example-P3: Determination of SMARCA2 and SMARCA4 Degradation in MV-4-11 Cells by Western Blot
(§2) MV-4-11 (CRL-9591™) cells were plated in 6 well plates using complete Iscove's Modified Dulbecco's Medium. On the third day, compounds of present invention were added to cells from 10 mM stocks made in DMSO (Sigma Cat no. D2650). Each concentration of compound was tested with DMSO not exceeding final percentage of 0.1 in the cells. Cells were incubated with the compound for 16 hours followed by harvesting with 1×RIPA lysis buffer (Thermo Fischer, catalogue number #89900) containing protease inhibitor cocktail (Sigma catalogue number #P-8340). Equal amount of protein was loaded on SDS PAGE gel for electrophoresis. Western blot was carried out for detection of either SMARCA2 (Cell signalling technologies, catalogue number #11966) or SMARCA4 antibody (Cell signalling technologies, catalogue number #52251). Beta-Tubulin antibody (Cell signalling technologies, catalogue number #86298) was used as loading control. Percentage of SMARCA2 or SMARCA4 degradation was calculated using formula % Degradation=100−(normalized band intensity in treated sample/normalized band intensity in DMSO sample)*100. Here, “ND” refers to Not determined.
On the technique in general: A western blot detects proteins with antibodies after separation by electrophoresis.

The subject of another test is SK-MEL-5 cells. The test is described as follows: Anti proliferative activity in SK-MEL-5 cells by Cell Titer Glo (Promega) assay. The settings on record: Homo sapiens, retreatment on Day 4, terminated on day 8, CellTiter-Glo. A digest of the protocol: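 SK-MEL-5 cells treated with 9-point 3-fold dilution series, re-dosed on day 4, read on day 8 by CellTiter-Glo luminescence. EC50 derived from percent proliferation inhibition versus concentration.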

The next test concerns the target T2, SMARCA2 (Homo sapiens, UniProt P51531).
T2 construct: endogenous in cells; host or cells: MV-4-11 (CRL-9591)
The test can be described thus: SMARCA2 degradation in MV-4-11 cells by Western blot. The settings on record: MV4-11, 16 h, at 100 nM, vs DMSO, read-out: Percent degradation SMARCA2. The procedure:
as §1, §2

The subject of a further test is MV-4-11 cells. The test is described as follows: Anti proliferative activity in MV-4-11 cells by Cell Titer Glo (Promega) assay. The settings on record: Homo sapiens, MV4-11, 72 h, 3 days, CellTiter-Glo. A digest of the protocol:
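MV-4-11 cells in complete DMEM were exposed to compound for 3 days in triplicate, final DMSO ≤0.3%. Viability was read by CellTiter-Glo ATP luminescence, and % inhibition was taken relative to the DMSO control. EC50 was derived from concentration-response curves.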
A general note: In ATP-based viability assays light output follows the ATP content of the culture.

Structures can show the parent of a compound that is named as a salt. Bounds are passed on as bounds.

T2 sequence (P51531 whole entry): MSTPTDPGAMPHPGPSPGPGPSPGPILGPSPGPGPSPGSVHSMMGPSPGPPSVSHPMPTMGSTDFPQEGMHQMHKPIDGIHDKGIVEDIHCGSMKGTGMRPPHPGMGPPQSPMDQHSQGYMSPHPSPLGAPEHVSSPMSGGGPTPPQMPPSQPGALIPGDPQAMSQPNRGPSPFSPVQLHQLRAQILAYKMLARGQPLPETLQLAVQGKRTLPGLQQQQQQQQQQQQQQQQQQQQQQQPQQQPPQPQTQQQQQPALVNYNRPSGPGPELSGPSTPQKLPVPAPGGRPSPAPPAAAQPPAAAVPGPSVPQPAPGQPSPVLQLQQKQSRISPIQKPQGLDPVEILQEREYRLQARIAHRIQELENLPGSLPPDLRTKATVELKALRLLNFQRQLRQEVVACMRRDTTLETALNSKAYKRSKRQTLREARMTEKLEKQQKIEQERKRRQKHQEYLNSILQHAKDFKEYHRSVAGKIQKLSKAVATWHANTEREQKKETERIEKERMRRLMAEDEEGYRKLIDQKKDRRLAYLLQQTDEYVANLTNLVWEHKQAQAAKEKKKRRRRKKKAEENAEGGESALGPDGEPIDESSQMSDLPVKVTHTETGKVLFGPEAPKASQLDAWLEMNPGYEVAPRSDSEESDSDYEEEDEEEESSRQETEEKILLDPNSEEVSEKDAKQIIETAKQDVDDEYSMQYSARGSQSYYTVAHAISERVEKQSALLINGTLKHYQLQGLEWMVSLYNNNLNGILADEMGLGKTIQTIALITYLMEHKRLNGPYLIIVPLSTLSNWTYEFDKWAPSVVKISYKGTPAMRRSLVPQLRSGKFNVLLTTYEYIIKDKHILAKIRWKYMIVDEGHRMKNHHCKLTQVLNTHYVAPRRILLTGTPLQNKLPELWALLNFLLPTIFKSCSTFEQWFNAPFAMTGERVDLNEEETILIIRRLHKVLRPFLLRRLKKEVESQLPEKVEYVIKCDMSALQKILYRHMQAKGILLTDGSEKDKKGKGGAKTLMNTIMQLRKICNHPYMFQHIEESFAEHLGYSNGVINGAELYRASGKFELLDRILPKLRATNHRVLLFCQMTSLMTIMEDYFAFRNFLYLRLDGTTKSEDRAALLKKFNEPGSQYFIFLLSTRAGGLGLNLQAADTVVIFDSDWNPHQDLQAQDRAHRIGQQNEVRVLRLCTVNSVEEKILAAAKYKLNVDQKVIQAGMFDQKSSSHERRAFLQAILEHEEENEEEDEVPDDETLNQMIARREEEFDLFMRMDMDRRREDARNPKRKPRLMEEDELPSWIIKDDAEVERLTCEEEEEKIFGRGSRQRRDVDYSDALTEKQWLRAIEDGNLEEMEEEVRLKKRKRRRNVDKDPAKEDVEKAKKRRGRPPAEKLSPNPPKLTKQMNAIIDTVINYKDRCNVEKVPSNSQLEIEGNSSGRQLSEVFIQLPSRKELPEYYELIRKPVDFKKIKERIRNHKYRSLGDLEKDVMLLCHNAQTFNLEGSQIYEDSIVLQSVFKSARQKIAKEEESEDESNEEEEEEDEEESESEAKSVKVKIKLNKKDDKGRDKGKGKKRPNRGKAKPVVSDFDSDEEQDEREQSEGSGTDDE
T1 sequence (P51532 whole entry): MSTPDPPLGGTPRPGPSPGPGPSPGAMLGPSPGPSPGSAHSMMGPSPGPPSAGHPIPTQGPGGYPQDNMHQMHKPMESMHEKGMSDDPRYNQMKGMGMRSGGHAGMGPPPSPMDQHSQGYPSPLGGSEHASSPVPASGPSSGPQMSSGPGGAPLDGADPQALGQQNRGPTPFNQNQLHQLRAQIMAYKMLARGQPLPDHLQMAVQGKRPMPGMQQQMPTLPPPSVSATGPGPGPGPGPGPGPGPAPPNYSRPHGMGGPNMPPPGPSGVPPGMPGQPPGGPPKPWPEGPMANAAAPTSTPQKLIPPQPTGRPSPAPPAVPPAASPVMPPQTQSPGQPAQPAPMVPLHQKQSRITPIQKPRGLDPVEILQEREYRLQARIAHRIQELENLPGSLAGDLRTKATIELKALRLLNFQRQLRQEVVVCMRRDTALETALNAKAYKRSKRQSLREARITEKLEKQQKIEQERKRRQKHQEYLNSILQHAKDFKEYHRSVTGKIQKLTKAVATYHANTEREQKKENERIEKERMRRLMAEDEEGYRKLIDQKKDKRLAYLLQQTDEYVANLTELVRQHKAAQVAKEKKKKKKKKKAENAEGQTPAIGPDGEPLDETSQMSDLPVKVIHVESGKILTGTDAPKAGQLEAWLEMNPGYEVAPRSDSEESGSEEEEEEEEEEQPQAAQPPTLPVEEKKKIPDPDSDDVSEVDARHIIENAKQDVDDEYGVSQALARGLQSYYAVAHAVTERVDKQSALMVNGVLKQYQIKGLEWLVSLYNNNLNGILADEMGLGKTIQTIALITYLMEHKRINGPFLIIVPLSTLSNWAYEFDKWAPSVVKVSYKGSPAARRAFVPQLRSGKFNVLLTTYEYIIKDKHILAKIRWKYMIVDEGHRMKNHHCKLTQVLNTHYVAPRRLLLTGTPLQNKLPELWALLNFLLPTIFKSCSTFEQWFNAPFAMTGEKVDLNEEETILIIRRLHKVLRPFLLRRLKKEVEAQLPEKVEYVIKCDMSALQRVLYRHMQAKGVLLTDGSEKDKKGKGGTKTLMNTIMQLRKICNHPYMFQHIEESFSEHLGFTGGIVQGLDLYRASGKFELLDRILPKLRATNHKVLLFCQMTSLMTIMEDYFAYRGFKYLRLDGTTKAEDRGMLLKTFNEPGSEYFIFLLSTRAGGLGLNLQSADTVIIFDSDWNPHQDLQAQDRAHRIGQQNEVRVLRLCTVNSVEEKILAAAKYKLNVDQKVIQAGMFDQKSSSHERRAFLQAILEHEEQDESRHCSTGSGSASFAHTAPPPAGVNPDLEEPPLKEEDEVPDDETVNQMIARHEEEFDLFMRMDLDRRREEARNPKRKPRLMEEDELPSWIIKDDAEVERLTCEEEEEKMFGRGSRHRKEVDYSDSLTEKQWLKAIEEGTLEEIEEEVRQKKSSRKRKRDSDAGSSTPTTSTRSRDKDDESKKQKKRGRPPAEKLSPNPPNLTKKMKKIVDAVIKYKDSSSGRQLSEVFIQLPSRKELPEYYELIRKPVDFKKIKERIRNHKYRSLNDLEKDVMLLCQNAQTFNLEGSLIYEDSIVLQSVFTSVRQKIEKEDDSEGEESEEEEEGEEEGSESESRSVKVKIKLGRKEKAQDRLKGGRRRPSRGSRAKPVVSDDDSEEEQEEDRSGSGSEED

As a reminder, the EC50 is the concentration at which the effect is half-maximal. A lower EC50 goes with an effect from little substance. As to `Cn1c2cc(N3CCC(N4CCC(c5ccc(NC6CCC(=O)NC6=O)cc5F)CC4)CC3)ccc2n2c3cccc(Cl)c3c(=O)nc12` (centres unmarked) [Compound 36, 3-((4-(1′-(4-chloro-7-methyl-5-oxo-5,7-dihydrobenzo[4,5]imidazo[1,2-a]quinazolin-9-yl)-[1,4′-bipiperidin]-4-yl)-3-fluorophenyl)amino)piperidine-2,6-dione], the inhibition at 0.1 µM came out at 97% on SMARCA4 and 99% on SMARCA2. The EC50 with SK-MEL-5 cells was below 10 nM; in the test on MV-4-11 cells, above 100 nM.
The matching figures for `O=C1CCC(N2Cc3cc(N4CCN(C5CCN(c6ccc7c(c6)n(C6CCCC6)c6nc(=O)c8c(Cl)cccc8n76)CC5)CC4)ccc3C2=O)C(=O)N1` (centres unmarked) [Compound 30, 3-(5-(4-(1-(4-chloro-7-cyclopentyl-5-oxo-5,7-dihydrobenzo[4,5]imidazo[1,2-a]quinazolin-9-yl)piperidin-4-yl)piperazin-1-yl)-1-oxoisoindolin-2-yl)piperidine-2,6-dione-HCl salt]: 64%, 90%, below 10 nM and above 100 nM.
On the same counts, the results for `O=C1CCC(Oc2ccc(C3CCN(C4CCN(c5ccc6c(c5)n(C5CCCC5)c5nc(=O)c7c(Br)cccc7n65)CC4)CC3)cc2)C(=O)N1` (centres unmarked) [Compound 2, 3-(4-(1′-(4-bromo-7-cyclopentyl-5-oxo-5,7-dihydrobenzo[4,5]imidazo[1,2-a]quinazolin-9-yl)-[1,4′-bipiperidin]-4-yl)phenoxy)piperidine-2,6-dione-TFA salt] are 100%, 100%, below 10 nM and below 10 nM.
On to `Cn1c2cc(N3CCC(N4CCC(c5ccc(C6CCC(=O)NC6=O)cc5)CC4)CC3)ccc2n2c3cccc(Br)c3c(=O)nc12` (centres unmarked) [Compound 17, 3-(4-(1′-(4-bromo-7-methyl-5-oxo-5,7-dihydrobenzo[4,5]imidazo[1,2-a]quinazolin-9-yl)-[1,4′-bipiperidin]-4-yl)phenyl)piperidine-2,6-dione], for which the figures for the inhibition at 0.1 µM at SMARCA4 and on SMARCA2 were 24% and 68%, respectively. The EC50 in the test on SK-MEL-5 cells and in the test on MV-4-11 cells was below 10 nM throughout.
For `Cn1c2cc(N3CCC(N4CCC(c5ccc(C6CCC(=O)NC6=O)cc5)CC4)CC3)ccc2n2c3cccc(Cl)c3c(=O)nc12` (centres unmarked) [Compound 18, 3-(4-(1′-(4-chloro-7-methyl-5-oxo-5,7-dihydrobenzo[4,5]imidazo[1,2-a]quinazolin-9-yl)-[1,4′-bipiperidin]-4-yl)phenyl)piperidine-2,6-dione], the figures for the inhibition at 0.1 µM on SMARCA4 and at SMARCA2 were 95% and 98%, respectively. In addition, the EC50 in the test on SK-MEL-5 cells and in the test with MV-4-11 cells was below 10 nM each time.
Turning to `Nc1cccc2c1c(=O)nc1n(C3CCCC3)c3cc(N4CCC(N5CCN(c6ccc(C7CCC(=O)NC7=O)cc6)CC5)CC4)ccc3n21` (centres unmarked) [Compound 26, 3-(4-(4-(1-(4-amino-7-cyclopentyl-5-oxo-5,7-dihydrobenzo[4,5]imidazo[1,2-a]quinazolin-9-yl)piperidin-4-yl)piperazin-1-yl)phenyl)piperidine-2,6-dione-HCl salt], the results for the inhibition at 0.1 µM on SMARCA4 and at SMARCA2 were 33% and 68%, respectively. The concentration for a half-maximal effect (EC50) is 10 to 100 nM in the test on SK-MEL-5 cells and above 100 nM in the test on MV-4-11 cells.
Consider `O=C1CCC(N2Cc3cc(C4CCN(C5CCN(C6CCN(c7ccc8c(c7)n(C7CCCC7)c7nc(=O)c9c(Br)cccc9n87)CC6)CC5)CC4)ccc3C2=O)C(=O)N1` (centres unmarked) [Compound 7, 3-(5-(1″-(4-bromo-7-cyclopentyl-5-oxo-5,7-dihydrobenzo[4,5]imidazo[1,2-a]quinazolin-9-yl)-[1,4′:1′,4″-terpiperidin]-4-yl)-1-oxoisoindolin-2-yl)piperidine-2,6-dione], for which the inhibition at 0.1 µM on SMARCA4 and at SMARCA2 was 99% in each case. The EC50 in the test with SK-MEL-5 cells and in the test on MV-4-11 cells was below 10 nM throughout.
Regarding `Nc1cccc2c1c(=O)nc1n(C3CCCC3)c3cc(N4CCC(N5CCC(c6ccc(C7CCC(=O)NC7=O)cc6)CC5)CC4)ccc3n21` (centres unmarked) [Compound 25, 3-(4-(1′-(4-amino-7-cyclopentyl-5-oxo-5,7-dihydrobenzo[4,5]imidazo[1,2-a]quinazolin-9-yl)-[1,4′-bipiperidin]-4-yl)phenyl)piperidine-2,6-dione-HCl salt], the results for the inhibition at 0.1 µM at SMARCA4 and at SMARCA2 were 33% and 67%, respectively. Moreover, the values for the half-maximal effective concentration (EC50) in the test with SK-MEL-5 cells and with MV-4-11 cells were below 10 nM and 10 to 100 nM, respectively.
For `O=C1CCC(N2Cc3cc(C4CCN(C5CCN(c6ccc7c(c6)n(C6CCCC6)c6nc(=O)c8c(Br)cccc8n76)CC5)CC4)ccc3C2=O)C(=O)N1` (centres unmarked) [Compound 1, 3-(5-(1′-(4-Bromo-7-cyclopentyl-5-oxo-5,7-dihydrobenzo[4,5]imidazo[1,2-a]quinazolin-9-yl)-[1,4′-bipiperidin]-4-yl)-1-oxoisoindolin-2-yl)piperidine-2,6-dione], the inhibition at 0.1 µM at SMARCA4 amounted to 98%; at SMARCA2 it was 100%. Moreover, the EC50 with SK-MEL-5 cells and in the test on MV-4-11 cells was below 10 nM each time.
In the case of `O=C1CCC(Nc2ccc(N3CCN(C4CCN(c5ccc6c(c5)n(C5CCCC5)c5nc(=O)c7c(Cl)cccc7n65)CC4)CC3)c(F)c2)C(=O)N1` (centres unmarked) [Compound 35, 3-((4-(4-(1-(4-chloro-7-cyclopentyl-5-oxo-5,7-dihydrobenzo[4,5]imidazo[1,2-a]quinazolin-9-yl)piperidin-4-yl)piperazin-1-y1)-3-fluorophenyl)amino)piperidine-2,6-dione-TFA salt], the inhibition at 0.1 µM at SMARCA4 was determined as 91%; at SMARCA2, 98%. Moreover, the EC50 in the test with SK-MEL-5 cells was below 10 nM; in the test on MV-4-11 cells, above 100 nM.
The matching figures for `O=C1CCC(N2Cc3cc(C4CCN(C5CCN(c6ccc7c(c6)n(C6CCCC6)c6nc(=O)c8c(Cl)cccc8n76)CC5)CC4)ccc3C2=O)C(=O)N1` (centres unmarked) [Compound 9, 3-(5-(1′-(4-chloro-7-cyclopentyl-5-oxo-5,7-dihydrobenzo[4,5]imidazo[1,2-a]quinazolin-9-yl)-[1,4′-bipiperidin]-4-yl)-1-oxoisoindolin-2-yl)piperidine-2,6-dione]: 99%, 90%, below 10 nM and below 10 nM.

Values taken from patent US20260297094A1, “Tetracyclic Compounds as SMARCA2 and/or SMARCA4 Degraders” (Aurigene Oncology Limited, priority 2023, published 2026).
